How the values were obtained:
Assay type in all cases: in vivo
[1] = test system: Avena fatua; assay: Herbicidal pre-emergence action, AVEFA
From the text: (§1) 1. Herbicidal Pre-Emergence Action
(§2) • Seeds of monocotyledonous and dicotyledonous weed plants and crop plants are placed in wood-fiber pots in sandy loam and covered with soil. The test compounds, formulated in the form of wettable powders (WP), are then, as an aqueous suspension with a water application rate of 600 l/ha (converted), with 0.2% of wetting agent added, applied at various dosages to the surface of the covering soil. • After the treatment, the pots are placed in a greenhouse and kept under good growth conditions for the test plants. The visual assessment of the damage to the test plants is carried out after a trial period of about 3 weeks by comparison with untreated controls (herbicidal activity in percent: 100% activity=the plants have died, 0% activity=like control plants). • In addition to the compounds mentioned above, the following compounds show an activity of 90-100% against Alopecurus myosuroides, Digitaria sanguinalis, Echinocloa crus-galli, Lolium multiflorum, Setaria viridis and Sorghum halapense when applied by the pre-emergence method at 320 g/ha of a.i.: I-a-2, I-a-10, I-a-11, I-a-12.
(§3) 1. Herbicidal Pre-Emergence Action (Pre)
(§4) • Seeds of monocotyledonous and dicotyledonous weed plants and crop plants are placed in wood-fiber pots in sandy loam and covered with soil. […]

[2] = test system: Lolium multiflorum; assay: Herbicidal pre-emergence action, LOLMU
From the text: as §1, §2, §3, §4

[3] = test system: Setaria viridis; assay: Herbicidal pre-emergence action, SETVI; settings: 320 g/ha
From the text: as §1, §2, §3
(§5) • Seeds of monocotyledonous and dicotyledonous weed plants and crop plants are placed in wood-fiber pots in sandy loam and covered with soil. The test compounds, formulated in the form of wettable powders (WP) or emulsion concentrates (EC), are then, as an aqueous suspension with a water application rate of 600-800 l/ha (converted), with 0.1-0.2% of wetting agent added, applied at various dosages to the surface of the covering soil. • After the treatment, the pots are placed in a greenhouse and kept under good growth conditions for the test plants. […] Herbicidal Post-Emergence Action (Post) • Seeds of monocotyledonous and dicotyledonous weed and crop plants are placed in sandy loam in wood-fiber pots, covered with soil and cultivated in a greenhouse under good growth conditions. 2-3 weeks (stages 10-13 according to the BBCH scale) after sowing, the test plants are treated at a height of 5-10 cm. The test compounds, formulated as wettable powders (WP) or emulsion concentrates (EC), are then, with a water application rate of 600-800 l/ha (converted), with 0.1-0.2% of wetting agent added, sprayed at various dosages onto the green parts of the plants.
(§6) AVEFA: Avena fatua LOLMU: Lolium multiflorum SETVI: Setaria viridis CHEAL: Chenopodium album VIOTR: Viola tricolor VERPE: Veronica persica ORYSA: Oryza sativa TRZAS: Triticum aestivum ZEAMX: Zea mays ALOMY: Alopecurus myosuroides DIGSA: Digitaria sanguinalis ECHCG: Echinocloa crus-galli SORHA: Sorghum halepense AVESA: Avena sativa AMARE: Amaranthus retroflexus SINAL: Sinapis alba STEME: Stellaria media

[4] = test system: Chenopodium album; assay: Herbicidal pre-emergence action, CHEAL
From the text: as §3
as §5, with “the plants. […]” for “the plants.”

[5] = test system: Viola tricolor; assay: Herbicidal pre-emergence action, VIOTR
From the text: as §3
as §5, with “the plants. […]” for “the plants.”

[6] = test system: Veronica persica; assay: Herbicidal pre-emergence action, VERPE
From the text: as §3
as §5, with “the plants. […]” for “the plants.”

[7] = test system: Alopecurus myosuroides; assay: Herbicidal post-emergence action, ALOMY; settings: 80 g/ha
Method: (§7) 2. Herbicidal Post-Emergence Action
(§8) • Seeds of monocotyledonous and dicotyledonous weed and crop plants are placed in sandy loam in wood-fiber pots, covered with soil and cultivated in a greenhouse under good growth conditions. 2 to 3 weeks after sowing, the test plants are treated at the one-leaf stage. The test compounds, formulated as wettable powders (WP), are then, with a water application rate of 600 l/ha (converted), with 0.2% of wetting agent added, sprayed at various dosages onto the green parts of the plants. After the test plants have been kept in the greenhouse under optimum growth conditions for about 3 weeks, the activity of the preparations is rated visually in comparison to untreated controls (herbicidal activity in percent: 100% activity=the plants have died, 0% activity=like control plants). • In addition to the compounds mentioned above, the following compounds show an activity of 90-100% against Alopecurus myosuroides, Avena fatua, Digitaria sanguinalis, Echinocloa crus-galli, Lolium multiflorum, Setaria viridis and Sorghum halapense when applied by the post-emergence method at 320 g/ha: I-a-2, I-a-4, I-a-5, I-a-7, I-a-9, I-a-10, I-a-11, I-a-12, I-a-13, I-a-15. • In addition to the compounds mentioned above, the following compounds show an activity of 90-100% against Alopecurus myosuroides, Avena fatua, Echinocloa crus-galli, Lolium multiflorum and Setaria viridis when applied by the post-emergence method at 80 g/ha: I-a-1, I-b-2.
as §5, §6

[8] = test system: Avena fatua; assay: Herbicidal post-emergence action, AVEFA; settings: 80 g/ha
Method: as §7, §8, §5, §6

[9] = test system: Digitaria sanguinalis; assay: Herbicidal post-emergence action, DIGSA; settings: 80 g/ha
Method: as §7, §8, §5, §6

[10] = test system: Echinocloa crus-galli; assay: Herbicidal post-emergence action, ECHCG; settings: 80 g/ha
Method: as §7, §8, §5, §6

[11] = test system: Lolium multiflorum; assay: Herbicidal post-emergence action, LOLMU; settings: 80 g/ha
Method: as §7, §8, §5, §6

[12] = test system: Setaria viridis; assay: Herbicidal post-emergence action, SETVI; settings: 80 g/ha
Method: as §7, §8, §5, §6

[13] = test system: Sorghum halepense; assay: Herbicidal post-emergence action, SORHA
Method: as §7, §8, §5, §6

[14] = test system: Veronica persica; assay: Herbicidal post-emergence action, VERPE
From the text: as §5, with “the plants. […]” for “the plants.”

[15] = test system: Oryza sativa; assay: Herbicidal post-emergence action, ORYSA; settings: 80 g/ha
From the text: as §5, §6

[16] = test system: Triticum aestivum; assay: Herbicidal post-emergence action, TRZAS; settings: 80 g/ha
From the text: as §5, §6

[17] = test system: Zea mays; assay: Herbicidal post-emergence action, ZEAMX; settings: 80 g/ha
From the text: as §5, §6

CCc1cc(Cl)cc(Cl)c1C1=C(OC(=O)C(C)(C)C)NC2(CCC(C)CC2)C1=O (stereo not shown) [I-a-4]
% Activity AVEFA ([1]; 320 g/ha): 50% | % Activity LOLMU ([2]; 320 g/ha): 100% | % Activity SETVI [3]: 90% | % Activity CHEAL ([4]; 320 g/ha): 50% | % Activity VIOTR ([5]; 320 g/ha): 70% | % Activity VERPE ([6]; 320 g/ha): 40% | % Activity ALOMY [7]: 100% | % Activity AVEFA [8]: 100% | % Activity DIGSA [9]: 100% | % Activity ECHCG [10]: 100% | % Activity LOLMU [11]: 100% | % Activity SETVI [12]: 100% | % Activity SORHA ([13]; 80 g/ha): 100% | % Activity VERPE ([14]; 80 g/ha): 60% | % Activity ORYSA [15]: 100% | % Activity TRZAS [16]: 100% | % Activity ZEAMX [17]: 100%

CCc1cc(Cl)cc(Cl)c1C1=C(OC(=O)C(C)(C)C)C2(CCC(C)CC2)NC1=O (stereo not shown) [I-b-12 known from WO 04/065366]
inhibition at 320 g/ha ([1]; Avena fatua, pre-emergence): 0% | inhibition at 320 g/ha ([2]; Lolium multiflorum, pre-emergence): 40% | inhibition at 320 g/ha ([3]; Setaria viridis, pre-emergence): 40% | inhibition at 320 g/ha ([4]; Chenopodium album, pre-emergence): 0% | inhibition at 320 g/ha ([5]; Viola tricolor, pre-emergence): 0% | inhibition at 320 g/ha ([6]; Veronica persica, pre-emergence): 0%

CCc1cccc(Cl)c1C1=C(OC(=O)C(C)(C)C)C2(CCC(C)CC2)NC1=O (stereo not shown) [I-b-12 known from WO 04/065366]
inhibition at 80 g/ha ([7]; Alopecurus myosuroides, post-emergence): 0% | inhibition at 80 g/ha ([8]; Avena fatua, post-emergence): 0% | inhibition at 80 g/ha ([9]; Digitaria sanguinalis, post-emergence): 30% | inhibition at 80 g/ha ([10]; Echinochloa crus-galli, post-emergence): 40% | inhibition at 80 g/ha ([11]; Lolium multiflorum, post-emergence): 0% | inhibition at 80 g/ha ([12]; Setaria viridis, post-emergence): 30% | inhibition at 80 g/ha ([13]; Sorghum halepense, post-emergence): 0% | inhibition at 80 g/ha ([14]; Veronica persica, post-emergence): 0% | inhibition at 80 g/ha ([15]; Oryza sativa, post-emergence): 0% | inhibition at 80 g/ha ([16]; Triticum aestivum, post-emergence): 0% | inhibition at 80 g/ha ([17]; Zea mays, post-emergence): 0%

Source: patent publication US9204640B2, “2-acyloxy-pyrrolin-4-ones” (BAYER INTELLECTUAL PROPERTY GMBH, priority 2011, dated 2015)
